Data reported in patent US20120108592A1, “PHARMACEUTICAL COMPOSITIONS AND METHODS OF USE OF SALICYLANILIDES FOR TREATMENT OF HEPATITIS VIRUSES” (priority 2010, published 2012).
Where “and” joins values, the source holds several entries; their conditions need not be identical. Identical values can stand only once. Entries after “also recorded” stand apart in the source; their conditions may differ. Like-named read-outs stand apart in the source and are kept apart here.

Columns and labels:
[1] = Primary HCV replicon cell assay, cytotoxicity (neutral red dye uptake); type: cell-based; settings: human, 3 days of treatment
Protocol: (§4) Antiviral activity of test compounds was assessed in a 3-day assay using the stably-expressing HCV replicon cell line, AVA5 (sub-genomic CONI, genotype 1b) [Korba, B. E. et al. Antiviral Res. 77, 56-63 (2008); Blight et al., Science 290, 1972-1974 (2000)] maintained as sub-confluent cultures on 96-well plates as previously described [Okuse et al., Antiviral Research 65, 23-34 (2005)]. Antiviral activity was determined by blot hybridization analysis of intracellular HCV RNA (normalized to the level of cellular B-actin RNA in each culture sample) and cytotoxicity was assessed by neutral red dye uptake after 3 days of treatment. Additional studies were performed using Huh7 cells containing another HCV replicon, H/FL-Neo, a genotype la full length construct [Blight et al., J. Virol. […] For studies involving human serum, standard culture medium (which contains 10% fetal bovine serum) and assay conditions were maintained.

[2] = Secondary HCV replicon cell assay genotype 1b, cytotoxicity (neutral red dye uptake); type: cell-based; settings: human
Protocol: as §4

[3] = tested on: J6/JFH-1 HCV (genotype 2a) in Huh 7.5 cells; assay: Infectious genotype 2a HCV cell culture assay (RT-PCR viral load); type: cell-based, hepatitis C virus (HCV); settings: genotype G2a; for inhibition of J6/JFH-1 HCV replication: 1 μM test concentration; for relative activity / potency versus NTZ: at 1 μM, % of NTZ
Protocol: (§1) Genotype 2a antiviral assays were conducted as previously described [Broering R. et al., Gut, 59, 1111-1119 (2010)]. […] Cell viability was determined using the Calcein assay kit (Biotium, Inc. Hayward, Calif., USA). The alternate method for measuring cell cytotoxicity was via the Guava Technologies ViaCount assay (Millipore) The ViaCount Assay provides rapid and reliable determinations of viability and total cell count. It distinguishes viable and non-viable cells based on differential permeabilities of two DNA-binding dyes in the Guava ViaCount® Reagent. The nuclear dye stains only nucleated cells, while the viability dye brightly stains dying cells. This combination of dyes enables the Guava ViaCount Assay to distinguish viable, apoptotic, and dead cells. Debris is excluded from results based on negative staining with the nuclear dye.
HCV replication levels were determined by RT-PCR on RNA from cell culture supernatants. J6-infected Huh 7.5 cells were seeded in 12-well plates at a density of 2.0E5 cells/well in 1.5 mL of DMEM supplemented with 10% FBS and 1% Pen/Strep. […] A positive control of IFN-α at concentrations of 10 IU/mL and 50 IU/mL, negative control wells containing mock incubations of DMEM with 1 uL and 10 uL (the same volume of the molecular compounds at 1 uM and 10 uM, respectively) of DMSO was included to rule out nonspecific effects of DMSO on the cells, and J6-infected with only DMEM were used as negative controls. A final control group consisted of un-infected Huh 7.5 cells, plated at the same time and density as the J6-infected cells on a separate plate. 48 hours and 120 hours after incubation with thiazolides, the media was collected and frozen, cells were washed 2× with PBS, and lysed in 500 uL of lysis buffer per well. Following lysis, RNA was extracted from the cells using the RNAqueous-4PCR Kit from Ambion, and the RNA concentration determined using the Nanoprop® machine. Reverse-transcription reactions produced 1.5 μg of cDNA per sample, which was then used for rt-PCR to quantify the HCV viral load in each sample. Analysis of the rt-PCR results generated the fold increases and decreases of the HCV viral load in comparison to untreated J6 cells.

[4] = tested on: Huh 7.5 cells; assay: Cytotoxicity in Huh 7.5 cells (Calcein / ViaCount assay); type: cell-based
Protocol: as §1

[5] = tested on: HCV replicon H/FL-Neo, genotype 1a full length construct, in Huh7 cells; assay: Secondary HCV replicon cell assay genotype 1a, antiviral activity; type: cell-based; settings: Hepatitis C virus; for EC50: Huh-7, 2-fold depression of intracellular HCV RNA; for EC90: Huh-7, 10-fold depression of intracellular HCV RNA
Protocol: (§2) Antiviral activity of test compounds was assessed in a 3-day assay using the stably-expressing HCV replicon cell line, AVA5 (sub-genomic CONI, genotype 1b) [Korba, B. E. et al. Antiviral Res. 77, 56-63 (2008); Blight et al., Science 290, 1972-1974 (2000)] maintained as sub-confluent cultures on 96-well plates as previously described [Okuse et al., Antiviral Research 65, 23-34 (2005)]. Antiviral activity was determined by blot hybridization analysis of intracellular HCV RNA (normalized to the level of cellular B-actin RNA in each culture sample) and cytotoxicity was assessed by neutral red dye uptake after 3 days of treatment. Additional studies were performed using Huh7 cells containing another HCV replicon, H/FL-Neo, a genotype la full length construct [Blight et al., J. Virol. 77, 3181-3190 (2003)]. For studies involving human serum, standard culture medium (which contains 10% fetal bovine serum) and assay conditions were maintained.
(§3) EC50, EC90 and CC50 values (±standard deviations [S.D.]) were calculated by linear regression analysis using data combined from all treated cultures (Korba, B. E. et al. Antiviral Res. 77, 56-63 (2008)). […] Selectivity index (S.I.) was calculated as CC50/EC90 for HBV assays and CC50/EC50 for HCV assays.

[6] = Secondary HCV replicon cell assay genotype 1a, cytotoxicity (neutral red dye uptake); type: cell-based; settings: human
Protocol: as §4

[7] = tested on: HCV replicon cell line, AVA5 (sub-genomic CONI, genotype 1b); assay: Primary HCV replicon cell assay, antiviral activity (intracellular HCV RNA, blot hybridization); type: cell-based; settings: Hepatitis C virus, Ava5, 72 h, 3-day assay; for EC50: 2-fold depression of intracellular HCV RNA; for EC90: 10-fold depression of intracellular HCV RNA
Protocol: as §2, §3

[8] = tested on: HCV replicon cell line, AVA5 (sub-genomic CONI, genotype 1b); assay: Secondary HCV replicon cell assay genotype 1b, antiviral activity; type: cell-based; settings: Hepatitis C virus; for EC50: 2-fold depression of intracellular HCV RNA; for EC90: 10-fold depression of intracellular HCV RNA
Protocol: as §2, §3

[9] = Cytotoxicity in 2.2.15 cells (neutral red dye uptake); type: cell-based; settings: human, nine daily doses
Protocol: Briefly, confluent cultures of 2.2.15 cells were maintained on 96-well flat-bottomed tissue culture plates (confluence in this culture system is required for active, high levels of HBV replication equivalent to that observed in chronically-infected individuals. Cultures were treated with nine consecutive daily doses of the test compounds. HBV DNA levels were assessed by quantitative blot hybridization 24 hr. after the last treatment. Cytotoxicity was assessed by uptake of neutral red dye 24 hr. following the last treatment.

[10] = tested on: HBV virion in 2.2.15 cells; assay: HBV antiviral assay in 2.2.15 cells, virion (VIR) HBV DNA; type: cell-based; settings: Hepatitis B virus; for EC50: read-out: EC50 (VIR); for EC90: read-out: EC90 (VIR)
Protocol: (§5) HBV antiviral assays were conducted as previously described [Korba, B. E. et al. Antiviral Res. 77, 56-63 (2008);].

[11] = tested on: AVA5 HCV replicon cell line; assay: Secondary HCV replicon cell assay genotype 1b, cytotoxicity (neutral red dye uptake); type: cell-based
Protocol: as §4

[12] = cited from earlier work
[13] = tested on: HBV replication intermediates in 2.2.15 cells; assay: HBV antiviral assay in 2.2.15 cells, replication intermediates (RI) HBV DNA; type: cell-based; settings: Hepatitis B virus; for EC50: read-out: EC50 (RI)
Protocol: as §5

[14] = tested on: Huh7 cells containing H/FL-Neo replicon; assay: Secondary HCV replicon cell assay genotype 1a, cytotoxicity (neutral red dye uptake); type: cell-based
Protocol: as §4

[15] = tested on: AVA5 HCV replicon cell line; assay: Primary HCV replicon cell assay, cytotoxicity (neutral red dye uptake); type: cell-based; settings: 3 days of treatment
Protocol: as §4

[16] = tested on: cytochrome P450 enzymes; settings: cited from earlier work
[17] = AVA5 HCV replicon cells (sub-genomic CON1, genotype 1b)
[18] = AVA5 HCV replicon cells (sub-genomic CON1)
[19] = HBV virion DNA, 2.2.15 cells, nine daily doses

Compound | CC50 at 3 days [1, 17] [nM] | CC50 at 3 days [2, 18] [nM] | inhibition of J6/JFH-1 HCV replication [3] | relative activity / potency versus NTZ [3] [%] | cytotoxic effect in Huh 7.5 cells [4] | EC50 [5] [nM] | EC90 [5] [nM] | CC50 at 3 days [6] [nM] | EC50 [7] [nM] | EC90 [7] [nM] | EC50 [8] [nM] | EC90 [8] [nM] | CC50 at 9 days [9] [nM] | EC50 [10, 19] [nM] | further results
O=C(Nc1cccc(F)c1)c1ccccc1O [Compound 3, N-(3-fluorophenyl)-2-hydroxybenzamide] | > 100000 | 11000 | shown to inhibit J6/JFH-1HCV replication | 65 | None of these compounds showed a cytotoxic effect | 420 | 3300 | 9900 | 820 | 2700 | 600 | 2600 |  |  | 
O=C(Nc1cc(C(F)(F)F)ccc1Cl)c1ccccc1O [Compound 41, N-(2-chloro-5-(trifluoromethyl)phenyl)-2-hydroxybenzamide] | 330 | 790 |  |  |  | 55 | 244 | 680 | 5 | 32 | 45 | 177 | > 100000 | 3700 | EC90 [10, 19]: 13000 nM
COC(=O)c1ccc(NC(=O)c2ccccc2OC(C)=O)cc1 [Compound 44, methyl 4-(2-acetoxybenzamido)benzoate] | 4400 | 6800 | shown to inhibit J6/JFH-1HCV replication | 53 | None of these compounds showed a cytotoxic effect | 300 | 5100 | 7500 | 58 | 461 | 350 | 4500 |  |  | 
CC(=O)Oc1ccccc1C(=O)Nc1ncc([N+](=O)[O-])s1 [NTZ, nitazoxanide, reference compound] |  |  | demonstrated efficacy with regards to HCV replication; also recorded: shown to inhibit J6/JFH-1HCV replication |  | without being cytotoxic; also recorded: None of these compounds showed a cytotoxic effect | 330 | 1100 |  | 210 | 977 | 250 | 950 | > 100000 | 120 | CC50 at 3 days [1]: 31000 nM; CC50 [11]: 35000 nM; detection in plasma ([12]; after oral 500 mg NTZ tablet): not detected in plasma; EC50 ([13]; HBV replication intermediates, 2.2.15 cells, nine daily doses): 590 nM; CC50 [14]: 49000 nM
O=C(Nc1ncc([N+](=O)[O-])s1)c1ccccc1O [TIZ, tizoxanide, reference compound] |  |  |  |  |  | 230 | 1000 | 27000 | 151 | 813 | 190 | 920 | > 100000 |  | CC50 [15]: 15000 nM; CC50 at 3 days [2]: 28000 nM; fraction of oral dose excreted in feces as TIZ ([12]; oral dose of NTZ): Approximately two-thirds; maximum serum concentration of TIZ ([12]; oral, one 500 mg NTZ tablet (Alinia) with food): approximately 10 μg/mL and ~37 μM; elimination half-life from plasma ([12]; plasma): approximately 1.5 hours; EC50 [13]: 460 nM; EC90 ([13]; read-out: EC90 (RI)): 1200 nM; inhibition of cytochrome P450 enzymes [16]: does not inhibit; EC50 [10]: 150 nM; EC90 [10]: 580 nM
